Measurements published in patent publication US9662388B2, “Methods and systems for treating cell proliferation disorders using plasmonics enhanced photospectral therapy (PEPST) and exciton-plasmon enhanced phototherapy (EPEP)” (Duke University, priority 2008, dated 2017).
Like-named read-outs stand apart in the source and are kept apart here. Non-standard residues stand in square brackets, D forms with d. Residues, ends and D or L forms follow the SMILES beside them. Bpa = N[CH](Cc1ccc(C(=O)c2ccccc2)cc1)C(=O)O; 2Nal = N[CH](Cc1ccc2ccccc2c1)C(=O)O; Aib = CC(C)(N)C(=O)O

Assays:
[1] = cited from earlier work
[2] = average over λex 224, 266, 280 nm

Structure (SMILES) | kSSET ([1]; λex 224 nm) [s⁻¹] | kSSET ([1]; λex 266 nm) [s⁻¹] | kSSET ([1]; λex 280 nm) [s⁻¹] | kSSET (Average) [2] [s⁻¹]
CC(NC(=O)C(C)(C)NC(=O)C(Cc1ccc(C(=O)c2ccccc2)cc1)NC(=O)C(C)(C)NC(=O)C(Cc1ccc2ccccc2c1)NC(=O)C(C)(C)NC(=O)C(C)NC(=O)C(C)(C)N)C(=O)O (single isomer, unassigned) [Compound 2B] | 3.1e+07 | 3.9e+07 | 4.7e+07 | 3.9e+07
CC1NC(=O)C(C)(C)NC(=O)C(Cc2ccc(C(=O)c3ccccc3)cc2)NC(=O)C(C)(C)NC(=O)C(C)NC(=O)C(C)(C)NC(=O)C(Cc2ccc3ccccc3c2)NC(=O)C(C)(C)NC1=O (centres unmarked) [Compound 1A] (cyclo([Aib][2Nal][Aib]A[Aib][Bpa][Aib]A); configuration not given here) | 3.8e+07 | 3.6e+07 | 3.6e+07 | 3.67e+07
CC(NC(=O)C(C)(C)NC(=O)C(Cc1ccc(C(=O)c2ccccc2)cc1)NC(=O)C(C)(C)NC(=O)C(C)NC(=O)C(C)(C)NC(=O)C(Cc1ccc2ccccc2c1)NC(=O)C(C)(C)N)C(=O)O (centres unmarked) [Compound 1B] (H-[Aib][2Nal][Aib]A[Aib][Bpa][Aib]A-OH; configuration not given here) | 2.44e+08 | 1.8e+08 | 1.36e+08 | –
